Reference: patent US6759390B2, “Compounds and their uses” (priority 2000, dated 2004)

Assays:
PKA = PKA inhibition; assay type: biochemical
Text: (§1) Methods for obtaining A-type and P-type mediators are set out in Caro et al, 1997, and in WO98/11116 and WO98/11117. Protocols for determining characteristic IPG biological activities such as PDH activation, PKA inhibition, acetylCoA activation, fructose-1,6-bis-phosphatase activity and lipogenesis are well known in the art, e.g. as described in Caro et al^[14].
(§2) The compounds of the invention can be tested for one or more the characteristic IPG-P and/or IPG-A activities mentioned above to determine whether they will be suitable for use a IPG mimetics or antagonists. Preferred assays measure the effect of the compounds on PDH phosphatase, PKA or lipogenesis. Protocols for these assays are provided in Caro et al^[14].

lipogenesis [1] = assay: basal lipogenesis stimulation; assay type: cell-based; settings: FIG. 2
Text: as §1, §2

lipogenesis [2] = assay: glucose stimulated lipogenesis stimulation; assay type: cell-based; settings: FIG. 3
Text: as §1, §2

PDH phosphatase = PDH phosphatase activation; assay type: biochemical; settings: 100 μM
Text: as §1, §2

Row | PDH activation (PDH phosphatase) [%] | Structure (SMILES) | PKA inhibition (PKA; 0.1 μM) [%] | PKA inhibition (PKA; 10 μM) [%] | effect on basal lipogenesis (lipogenesis [1]) | effect on glucose stimulated lipogenesis (lipogenesis [2])
1 | 361 | NC1C(OC2C(O)C(O)C(O)C(O)C2O)OC(CO)C(O)C1OP(=O)(O)O [RGL1029, O-(2′-amino-2′-deoxy-3′-phosphate-D-glucopyranosyl)-α(1,6)-D-myo-inositol] | 59 | 33 | stimulate lipogenesis | stimulate lipogenesis
2 | 14 | N[C@H]1[C@@H](O[C@H]2[C@H](O)[C@H](O)[C@H](O)[C@@H](O)[C@@H]2O)O[C@H](COP(=O)(O)O)[C@@H](O)[C@@H]1O [RGL1023, O-(2′-amino-2′-deoxy-6′-phosphate-D-glucopyranosyl)-α(1,6)-D-myo-inositol] |  |  | stimulate lipogenesis | stimulate lipogenesis
3 | 18 | NC1C(OC2C(O)C(O)C(O)C(O)C2OP(=O)(O)O)OC(CO)C(O)C1O [RGL1115, 1′-D-6-O-(2′-amino-2′-deoxy-α-D-glucanopyranosyl)-5-O-phosphate-myo-inositol] |  |  |  | 
4 | 132 | NC1C(OC2C(O)C(O)C(O)C(O)C2O)OC(CO)C(OP(=O)(O)O)C1O [RGL1027, O-(2′-amino-2′-deoxy-4′-phosphate-D-glucopyranosyl)-α(1,6)-D-myo-inositol] | 18 | 10 | inhibits lipogenesis | inhibits lipogenesis
